Assay results: PubChem BioAssay AID1845215 (Molecular Pharmacology Branch, DTP, NCI, 2023)

System: SW 1271 complex tumor spheroid viability
Test: Anticancer human tumor SW 1271 cell line growth inhibition;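 note: spheroids exposed to agents for seven days before readout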;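 for viability, T/C: percent of DMSO vehicle control luminescence so 100% = vehicle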
Conditions: for IC50: curve of first compound; for viability, T/C: stronger effect = lower value
Summary of the method: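 Single agents and combinations were tested on spheroids built from tumor cells plus HUVEC and hMSC, at half-log dilutions starting at or near clinical Cmax, else 10 microM; final DMSO 0.25% (v/v).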

[1] = second compound 30 pM, first compound 0.00949 µM
[2] = second compound 30 pM, first compound 0.03 µM
[3] = second compound 30 pM, first compound 0.0949 µM
[4] = second compound 30 pM, first compound 0.3 µM
[5] = second compound 30 pM, first compound 0.949 µM
[6] = second compound 30 pM, first compound 3 µM
[7] = second compound 94.9 pM, first compound 0.00949 µM
[8] = second compound 94.9 pM, first compound 0.03 µM
[9] = second compound 94.9 pM, first compound 0.0949 µM
[10] = second compound 94.9 pM, first compound 0.3 µM
[11] = second compound 94.9 pM, first compound 0.949 µM
[12] = second compound 94.9 pM, first compound 3 µM
[13] = second compound 0.0003 µM, first compound 0.00949 µM
[14] = second compound 0.0003 µM, first compound 0.03 µM
[15] = second compound 0.0003 µM, first compound 0.0949 µM
[16] = second compound 0.0003 µM, first compound 0.3 µM
[17] = second compound 0.0003 µM, first compound 0.949 µM
[18] = second compound 0.0003 µM, first compound 3 µM
[19] = second compound 0.000949 µM, first compound 0.00949 µM
[20] = second compound 0.000949 µM, first compound 0.03 µM
[21] = second compound 0.000949 µM, first compound 0.0949 µM
[22] = second compound 0.000949 µM, first compound 0.3 µM
[23] = second compound 0.000949 µM, first compound 0.949 µM
[24] = second compound 0.000949 µM, first compound 3 µM
[25] = second compound 0.003 µM, first compound 0.00949 µM
[26] = second compound 0.003 µM, first compound 0.03 µM
[27] = second compound 0.003 µM, first compound 0.0949 µM
[28] = second compound 0.003 µM, first compound 0.3 µM
[29] = second compound 0.003 µM, first compound 0.949 µM
[30] = second compound 0.003 µM, first compound 3 µM

Structure (SMILES)	IC50 (second compound 30 pM) [nM]	IC50 (second compound 94.9 pM) [nM]	IC50 (second compound 0.0003 µM) [nM]	IC50 (second compound 0.000949 µM) [nM]	IC50 (second compound 0.003 µM) [nM]	viability, T/C [3] [%]	viability, T/C [4] [%]	viability, T/C [5] [%]	viability, T/C [6] [%]	viability, T/C [9] [%]	viability, T/C [10] [%]	viability, T/C [11] [%]	viability, T/C [12] [%]	viability, T/C [15] [%]	viability, T/C [16] [%]	viability, T/C [17] [%]	viability, T/C [18] [%]	viability, T/C [21] [%]	viability, T/C [22] [%]	viability, T/C [23] [%]	other results
CNCc1ccc(-c2cc(-c3nc(-c4ccc(S(=O)(=O)C(C)C)cc4)cnc3N)on2)cc1 + COc1cc2c(cc1O)CCNC21CSC2c3c(OC(C)=O)c(C)c4c(c3C(COC1=O)N1C(O)C3Cc5cc(C)c(OC)c(O)c5C(C21)N3C)OCO4	117	26.6	< 9.49	< 9.49	< 9.49	55.5	18.8	11.3	0.15	37	27.9	14.7	0.12	38.5	35	19.5	0.15	3.92	2.05	1.95	viability, T/C [1]: 89.6%; viability, T/C [2]: 89.7%; viability, T/C [7]: 64%; viability, T/C [8]: 42.6%; viability, T/C [13]: 28.8%; viability, T/C [14]: 35.5%; viability, T/C [19]: 5.31%; viability, T/C [20]: 7.14%; viability, T/C [24]: 0.11%; viability, T/C [25]: 0.11%; viability, T/C [26]: 0.11%; viability, T/C [27]: 0.09%; viability, T/C [28]: 0.09%; viability, T/C [29]: 0.1%; viability, T/C [30]: 0.16%
Cn1ncnc1[C@H]1c2n[nH]c(=O)c3cc(F)cc(c23)N[C@@H]1c1ccc(F)cc1 + COc1cc2c(cc1O)CCNC21CSC2c3c(OC(C)=O)c(C)c4c(c3C(COC1=O)N1C(O)C3Cc5cc(C)c(OC)c(O)c5C(C21)N3C)OCO4	12.5	< 9.49	< 9.49	< 9.49	< 9.49	30.2	36.5	32.9	26.3	32.7	32.9	34.7	20.4	27.7	32.8	27.4	10.2	2.24	5.88	2.29	viability, T/C [1]: 53.8%; viability, T/C [2]: 38.3%; viability, T/C [7]: 37.2%; viability, T/C [8]: 33.5%; viability, T/C [13]: 34.7%; viability, T/C [14]: 35%; viability, T/C [19]: 8.93%; viability, T/C [20]: 4.22%; viability, T/C [24]: 0.31%; viability, T/C [25]: 0.1%; viability, T/C [26]: 0.09%; viability, T/C [27]: 0.09%; viability, T/C [28]: 0.1%; viability, T/C [29]: 0.09%; viability, T/C [30]: 0.15%
O=C(c1cc(Cc2n[nH]c(=O)c3ccccc23)ccc1F)N1CCN(C(=O)C2CC2)CC1 + COc1cc2c(cc1O)CCNC21CSC2c3c(OC(C)=O)c(C)c4c(c3C(COC1=O)N1C(O)C3Cc5cc(C)c(OC)c(O)c5C(C21)N3C)OCO4	1360	206	< 94.9	< 94.9	< 94.9	87.3	70.1	57.6	36.5	54.3	53.6	31.2	29.9	28	35.6	32.8	31.1	4.23	5.88	3.15	viability, T/C (second compound 30 pM, first compound 9.49 µM): 25.3%; viability, T/C (second compound 30 pM, first compound 30 µM): 11.8%; viability, T/C (second compound 94.9 pM, first compound 9.49 µM): 28.6%; viability, T/C (second compound 94.9 pM, first compound 30 µM): 11.7%; viability, T/C (second compound 0.0003 µM, first compound 9.49 µM): 24.2%; viability, T/C (second compound 0.0003 µM, first compound 30 µM): 3.66%; viability, T/C [24]: 1.8%; viability, T/C (second compound 0.000949 µM, first compound 9.49 µM): 1.43%; viability, T/C (second compound 0.000949 µM, first compound 30 µM): 0.13%; viability, T/C [27]: 0.19%; viability, T/C [28]: 0.19%; viability, T/C [29]: 0.12%; viability, T/C [30]: 0.13%; viability, T/C (second compound 0.003 µM, first compound 9.49 µM): 0.15%; viability, T/C (second compound 0.003 µM, first compound 30 µM): 0.21%
